Legend:
PDE I = details: reported in Hatzelmann et al., JPET 297(1):267-279 (2001); read-out: IC50 for roflumilast activity on PDE I; cited from earlier work
PDE IV [1] = test: Inhibition of PDE isoenzymes: PDE IV (PDE4, cytosol of human neutrophils, cAMP substrate); format: biochemical
Experimental: PDE inhibition is then determined by the presence or absence of substrate degradation products. […] The relative ability of an inhibitory compound to slow or prevent the degradation of tritiated cyclic nucleotides is one test that is indicative of how well the compound in question selects one or more of each isoform to inhibit.
In practice, the in vitro selectivity of a PDE IV inhibitor may vary depending upon the condition under which the test is performed and on the inhibitors being tested. However, for the purposes of this specification, the selectivity of a PDE IV inhibitor can be measured as a ratio of the in vitro IC50 value for inhibition of any other isoform of the phosphodiesterase enzyme (Z) other than PDE IV, divided by the IC50 value for inhibition of PDE IV (PDE Z IC50/PDE IV IC50), where Z identifies any PDE other than PDE IV. As used herein, the term “IC50” refers to the concentration of a compound that is required to produce 50% inhibition of phosphodiesterase activity. […]
After preincubation for 5 min at 37° C., the reaction isstarted by the addition of substrate (cAMP or cGMP) and the assays are incubated for further 15 min at 37° C. […] The columns are elutedwith 2 ml of 30 mM ammonium formate (pH 6.0) and the eluate is counted for radioactivity. Results are corrected for blank values (measured in the presence of denatured protein) that are below 5% of total radioactivity. […]

PDE IV [2] = tested on: T1, PDE IV; details: reported in Hatzelmann et al., JPET 297(1):267-279 (2001); read-out: IC50 for roflumilast activity on PDE IV; cited from earlier work
T1 construct: other: reported in Hatzelmann et al., JPET 297(1):267-279 (2001)

O=C(Nc1c(Cl)cncc1Cl)c1ccc(OC(F)F)c(OCC2CC2)c1 [roflumilast, 3-(cyclopropylmethoxy)-N-(3,5-dichloropyridin-4-yl)-4-(difluoromethoxy) benzamide]
IC50 (PDE I): > 10000 nM
selectivity for PDE IV as compared with PDE V (PDE V IC50/PDE IV IC50) (PDE IV [1]; 8/0.0008): at least 10,000
selectivity for PDE IV as compared with PDE I (PDE I IC50/PDE IV IC50) (PDE IV [1]; >10/0.0008): at least 12,500
IC50 (PDE IV [2]): 0.8 nM
